Laboratory results: patent publication US20260234187A1, “ANTIMICROBIAL PEPTIDES” (MATERIAS S.R.L., priority 2020, published 2026)
Where no end group is shown, it is not given here.

Tests used:
Salmonella = experiment: bactericidal activity at 15 μM, CFU versus control; type: cell-based
Protocol: (§1) The bactericidal activity of further AMP peptides according to the invention, in particular of the RiLK31 peptide (RLRWVKIWKK, SEQ ID NO:31) and the RiLK3 peptide (RLRWVRIWRR, SEQ ID NO:3), was tested. The bactericidal activity was expressed as a percentage of viable cells in terms of CFU (Colony Forming Units) in a bacterial sample exposed to each peptide compared to those in a control bacterial sample in the absence of the peptide. All tests were carried out with the same peptide concentration, corresponding to 15 μM.

Staphylococcus = experiment: bactericidal activity at 15 μM, CFU versus control; type: cell-based
Protocol: as §1

L. monocytogenes (LM2) = type: cell-based, Listeria monocytogenes
Protocol: The evaluation of the Minimum Bactericidal Concentration (MBC), i.e., the lowest concentration of antimicrobial agent capable of 99.9% inhibition of bacterial growth on plates, was carried out as described in Bílikova et al, (2015, Peptides 68:190-196). […] It should be noted that the peptide object of the present invention is more powerful and efficient than the peptide IDR-1018-K6 (described in patent application WO2019012158) against the pathogenic bacteria L. monocytogenes and S. typhimurium, with bactericidal concentration values 4-fold and 7-fold lower, respectively, compared to those shown by IDR-1018-K6.

[1] = kinetics of structural rearrangements by Circular Dichroism, secondary structure by BESTSEL and Dichroweb; type: physicochemical; conditions: sodium acetate pH 4
Protocol: The structural and conformational characterization of the RiLK1 peptide was assessed by investigating its secondary structure by Circular Dichroism (CD) spectroscopy in the absence and in the presence of Sodium Dodecyl Sulfate (SDS) at a concentration of 3 mM to mimic the condition of the bacterial cell membrane.
The CD assays were performed with a Jasco J-810 spectropolarimeter equipped with a thermostated cuvette holder. The samples were loaded into a 0.1 cm long quartz cuvette (Hellma Analytics) and the spectrum was analysed in the range from 190 nm to 250 nm at room temperature for each sample.
The CD spectra were acquired at a scan rate of 20 nm/min, and the recorded results represent an average of 5 scans.
The mean residue ellipticity ([θ], degrees cm^2 dmol^−1) was calculated using the following equation: […]
The secondary structure was calculated through the DICHROWEB site (Whitmore L and Wallace B A, 2004, Nucleic Acids Research 32:668-673, Whitmore L and Wallace B A, 2008, Biopolymers 89:392-400, Lobley et al, 2002, Bioinformatics 18:211-212), using three different algorithms (SELCON3, CONTIN-LL and CDSSTR) (Sreerema N and Woody R W, 1993, Analytical Biochemistry 287:252-260) and selecting the SMP180 protein as the comparison data set, which includes a high number of spectra of soluble and membrane proteins (Abdul-Gader A et al, 2011, Bioinformatics 27:1630-1636).
The secondary structure was also calculated through the BETSEL site (Micsonai A. et al, 2018, Nucleic Acids Res. 46: W315-W322; Micsonai A. et al, 2015, Proc Natl Acad Sci USA; 112: E3095-E3103).
The kinetics of the structural rearrangements of the RiLK1 peptide were assessed over 24 hours by Circular Dichroism (CD) spectroscopy and fluorescence spectroscopy.
0.1 g/L of RiLK1 peptide was dissolved in 10 mM sodium acetate buffer at pH 4, in the absence or presence of 3 mM SDS.

RLKWVRIWRR-NH2 [RiLK1, RLKWVRIWRR]
bactericidal activity (Salmonella): 100%
bactericidal activity (Staphylococcus): 96.9%^
bactericidal concentration lower compared to IDR-1018-K6 (L. monocytogenes (LM2); L. monocytogenes): 4 fold
MBC (L. monocytogenes (LM2); L. monocytogenes (LM2)): 2 µM
Random (Bestsel) ([1]; t = 0 w/ 3 mM SDS): 41.3%
Random (DichroWeb CONTIN-LL) ([1]; t = 0 w/ 3 mM SDS): 40%
α-helix (Bestsel) ([1]; t = 0 w/ 3 mM SDS): 7.4%
α-helix (DichroWeb CONTIN-LL) ([1]; t = 0 w/ 3 mM SDS): 22%
β-sheet (Bestsel) ([1]; t = 0 w/ 3 mM SDS): 51.4%
β-sheet (DichroWeb CONTIN-LL) ([1]; t = 0 w/ 3 mM SDS): 38%
Random (Bestsel) ([1]; t = 5 min w/ 3 mM SDS): 42.2%
Random (DichroWeb CONTIN-LL) ([1]; t = 5 min w/ 3 mM SDS): 36%
α-helix (Bestsel) ([1]; t = 5 min w/ 3 mM SDS): 4.4%
α-helix (DichroWeb CONTIN-LL) ([1]; t = 5 min w/ 3 mM SDS): 22%
β-sheet (Bestsel) ([1]; t = 5 min w/ 3 mM SDS): 53.4%
β-sheet (DichroWeb CONTIN-LL) ([1]; t = 5 min w/ 3 mM SDS): 42%
Random (Bestsel) ([1]; t = 30 min w/ 3 mM SDS): 40.3%
Random (DichroWeb CONTIN-LL) ([1]; t = 30 min w/ 3 mM SDS): 37%
α-helix (Bestsel) ([1]; t = 30 min w/ 3 mM SDS): 11%
α-helix (DichroWeb CONTIN-LL) ([1]; t = 30 min w/ 3 mM SDS): 25%
β-sheet (Bestsel) ([1]; t = 30 min w/ 3 mM SDS): 48.7%
β-sheet (DichroWeb CONTIN-LL) ([1]; t = 30 min w/ 3 mM SDS): 38%
Random (DichroWeb CONTIN-LL) ([1]; t = 1 h (60 min) w/ 3 mM SDS): 39%
α-helix (DichroWeb CONTIN-LL) ([1]; t = 1 h (60 min) w/ 3 mM SDS): 23%
β-sheet (DichroWeb CONTIN-LL) ([1]; t = 1 h (60 min) w/ 3 mM SDS): 38%
Random (Bestsel) ([1]; t = 1 h w/ 3 mM SDS): 39.1%
α-helix (Bestsel) ([1]; t = 1 h w/ 3 mM SDS): 9.8%
β-sheet (Bestsel) ([1]; t = 1 h w/ 3 mM SDS): 51.1%
Random (DichroWeb CONTIN-LL) ([1]; t = 5 h (300 min) w/ 3 mM SDS): 38%
α-helix (DichroWeb CONTIN-LL) ([1]; t = 5 h (300 min) w/ 3 mM SDS): 19%
β-sheet (DichroWeb CONTIN-LL) ([1]; t = 5 h (300 min) w/ 3 mM SDS): 43%
Random (Bestsel) ([1]; t = 5 h w/ 3 mM SDS): 39.3%
α-helix (Bestsel) ([1]; t = 5 h w/ 3 mM SDS): 6.7%
β-sheet (Bestsel) ([1]; t = 5 h w/ 3 mM SDS): 54%
Random (DichroWeb CONTIN-LL) ([1]; t = 6 h (360 min) w/ 3 mM SDS): 37%
α-helix (DichroWeb CONTIN-LL) ([1]; t = 6 h (360 min) w/ 3 mM SDS): 19%
β-sheet (DichroWeb CONTIN-LL) ([1]; t = 6 h (360 min) w/ 3 mM SDS): 44%
Random (Bestsel) ([1]; t = 6 h w/ 3 mM SDS): 40.1%
α-helix (Bestsel) ([1]; t = 6 h w/ 3 mM SDS): 8%
β-sheet (Bestsel) ([1]; t = 6 h w/ 3 mM SDS): 52%
Random (Bestsel) ([1]; t = 24 h w/ 3 mM SDS): 38%
Random (DichroWeb CONTIN-LL) ([1]; t = 24 h w/ 3 mM SDS): 24%
α-helix (Bestsel) ([1]; t = 24 h w/ 3 mM SDS): 8.4%
α-helix (DichroWeb CONTIN-LL) ([1]; t = 24 h w/ 3 mM SDS): 29%
β-sheet (Bestsel) ([1]; t = 24 h w/ 3 mM SDS): 53.6%
β-sheet (DichroWeb CONTIN-LL) ([1]; t = 24 h w/ 3 mM SDS): 47%
Random (Bestsel) ([1]; w/o 3 mM SDS): 51.5%
Random (DichroWeb CONTIN-LL) ([1]; w/o 3 mM SDS): 61%
α-helix (Bestsel) ([1]; w/o 3 mM SDS): 1.2%
α-helix (DichroWeb CONTIN-LL) ([1]; w/o 3 mM SDS): 4%
β-sheet (Bestsel) ([1]; w/o 3 mM SDS): 47.3%
β-sheet (DichroWeb CONTIN-LL) ([1]; w/o 3 mM SDS): 35%
